{"source": "ChEMBL document CHEMBL4828719", "about": "“H2dpa derivatives containing pentadentate ligands: An acyclic adjuvant potentiates meropenem activity in vitro and in vivo against metallo-β-lactamase-producing Enterobacterales” (Eur J Med Chem, 2021)", "tested_on": "Klebsiella pneumoniae", "assay": "Antibiotic adjuvant activity against meropenem-treated NDM-producing carbapenem resistant Klebsiella pneumoniae infected in BALB/c mouse sepsis model assessed as survival rate at 10 mg/kg, ip in the presence of meropenem measured after 7 days", "format": "functional", "conditions": "168 h, time 7 day", "data": [{"compound": "C[C@H](C(=O)O)N(Cc1cccc(C(=O)O)n1)Cc1cccc(C(=O)O)n1", "values": [{"measurement": "survival at 10 mg/kg", "result": 100, "unit": "%"}]}]}
